According to paper PMC7589491, “Biomimetic Artificial Membrane Permeability Assay over Franz Cell Apparatus Using BCS Model Drugs” (Pharmaceutics, 2020):
Read-outs that look alike come from different tables or passages of the source.

Columns and labels:
[1] = cited from earlier work
[2] = fraction of dose absorbed in humans; cited from earlier work
[3] = Franz–PAMPA permeation study (lipid-impregnated artificial membrane on Franz cells); conditions: for Papp at 12 h, 10 mg/mL: PAMPA; for Permeability classification in Franz–PAMPA: metoprolol as high permeability marker, best fit method
[4] = cited from earlier work; remark: listed apart in the source
Caco-2 cells = conditions: cited from earlier work
[5] = pH 7.4; cited from earlier work
[6] = cited from earlier work; remark: listed apart in the source
[7] = Dose number (D0) in donor compartment; format: physicochemical; conditions: 10 mg/mL in donor, not under infinite dose conditions
[8] = Permeation across non-impregnated membrane on Franz cells; format: in vitro ADME; conditions: PAMPA, pH 7.4; as worded; read-out: Papp non-impregnated one across Franz–PAMPA
in vitro = conditions: PAMPA
[9] = design: method as in PMID 25840123; conditions: cited from earlier work
[10] = pH 7.4, Papp Franz–PAMPA, PBS pH 7.4, 37 °C, 500 rpm, 12 h, n = 3, best fit of linear portion (sink equation)
[11] = pH 7.4, Papp Non-Sink Arthurson, Franz–PAMPA data, non-sink equation
[12] = pH 7.4, Papp across Franz–PAMPA
[13] = pH 7.4, Papp Non-Sink Arthurson

Compound | Log D pH 7.4 [1] | Fa(%) [2] | Papp at 12 h, 10 mg/mL [3, 10] | Papp at 12 h, 10 mg/mL [3, 11] | Intrinsic Solubility [4] | Papp Caco-2 (Caco-2 cells) | Papp PAMPA pH 7,4 [5] | Papp Corti [6] | D0 [7] | further results
CN/C(=N/CCSCc1nc[nH]c1C)NC#N [Cimetidine] | 0.4 | 93% | 35.6 ×10⁻⁶ cm/s | 31 ×10⁻⁶ cm/s | 6.0 mg/mL | 0.7 ×10⁻⁶ cm/s |  |  |  | Permeability classification in Franz–PAMPA [3]: highly permeable
CC(C(=O)O)c1cccc(C(=O)c2ccccc2)c1 (stereo not shown) [Ketoprofen] |  |  | 12.1 ×10⁻⁶ cm/s |  |  | 20.1 ×10⁻⁶ cm/s | 16.7 × 10^−6 cm/s | 42.7 ×10⁻⁶ cm/s |  | 
CC(C)NCC(O)COc1cccc2ccccc12 (stereo not shown) [Propranolol] |  |  | 33.1 ×10⁻⁶ cm/s | 88.4 ×10⁻⁶ cm/s | 33.0 mg/mL | 41.9 ×10⁻⁶ cm/s | 23.5 × 10^−6 cm/s | 39.7 ×10⁻⁶ cm/s | ≤ 0.01 | Permeability classification in Franz–PAMPA [3]: highly permeable
OC[C@@H](O)[C@@H](O)[C@H](O)[C@H](O)CO [Mannitol] |  |  |  |  |  |  |  |  |  | Papp at 12 h, 10 mg/mL [3, 12]: 0.32 ×10⁻⁶ cm/s; Papp at 10 mg/mL [8]: 0.32 ×10⁻⁶ cm/s
CC1(C)S[C@@H]2[C@H](NC(=O)[C@H](N)c3ccc(O)cc3)C(=O)N2[C@H]1C(=O)O [Amoxicillin] |  |  | 0.85 ×10⁻⁶ cm/s | 0.07 ×10⁻⁶ cm/s |  | 0.8 ×10⁻⁶ cm/s | 1.5 × 10^−6 cm/s |  |  | LogP [1]: 0.9
C[C@](N)(Cc1ccc(O)c(O)c1)C(=O)O [Methyldopa] |  | 41% |  |  |  | 0.2 ×10⁻⁶ cm/s |  | 3.2 ×10⁻⁶ cm/s |  | LogP [1]: 0.4
O=C(O)Cc1ccccc1Nc1c(Cl)cccc1Cl [Diclofenac] | 1.2 | 100% |  |  |  |  |  |  |  | Permeability classification in Franz–PAMPA: highly permeable; Papp at 12 h, 10 mg/mL (in vitro; pH 7.4, Papp Franz–PAMPA): 68.1 ×10⁻⁶ cm/s; Papp at 12 h, 10 mg/mL (in vitro; [13]): 105 ×10⁻⁶ cm/s
Cn1c(=O)c2c(ncn2C)n(C)c1=O [Caffeine] |  |  | 36.2 ×10⁻⁶ cm/s | 53.3 ×10⁻⁶ cm/s |  |  | 10.8 × 10^−6 cm/s | 41.1 ×10⁻⁶ cm/s | ≤ 0.01 | Permeability classification in Franz–PAMPA [3]: highly permeable; Papp Permeapad™ [9]: 20.4 ×10⁻⁶ cm/s
COCCc1ccc(OCC(O)CNC(C)C)cc1 (stereo not shown) [Metoprolol] |  |  | 15.8 ×10⁻⁶ cm/s | 59 ×10⁻⁶ cm/s | 1000.0 mg/mL | 23.7 ×10⁻⁶ cm/s | 3.5 × 10^−6 cm/s | 48.1 ×10⁻⁶ cm/s | ≤ 0.01 | Papp at 12 h, 10 mg/mL [3, 12]: 16.1 ×10⁻⁶ cm/s; Papp at 10 mg/mL [8]: 16.1 ×10⁻⁶ cm/s; Papp Permeapad™ [9]: 1 ×10⁻⁶ cm/s
CNC(=C[N+](=O)[O-])NCCSCc1ccc(CN(C)C)o1 [Ranitidine] | −0.3 |  | 6.81 ×10⁻⁶ cm/s | 5.3 ×10⁻⁶ cm/s | 100.0 mg/mL | 0.5 ×10⁻⁶ cm/s | 0.5 × 10^−6 cm/s | 21.5 ×10⁻⁶ cm/s | ≤ 0.01 | 
CC(C)NCC(O)COc1ccc(CC(N)=O)cc1 (stereo not shown) [Atenolol] |  |  |  |  |  |  |  |  | ≤ 0.01 | 
CC(C)Cc1ccc(C(C)C(=O)O)cc1 (stereo not shown) [Ibuprofen] | 0.7 | 93% |  |  | 0.01 mg/mL |  | 6.8 × 10^−6 cm/s |  |  | LogP [1]: 3.1; Papp Permeapad™ [9]: 16.6 ×10⁻⁶ cm/s
Nc1nc2c(ncn2COCCO)c(=O)[nH]1 [Acyclovir] | −1.7 |  | 0.4 ×10⁻⁶ cm/s | 0.4 ×10⁻⁶ cm/s |  | 0.3 ×10⁻⁶ cm/s |  | 9.1 ×10⁻⁶ cm/s |  | LogP [1]: −1.7; Papp Permeapad™ [9]: 7.9 ×10⁻⁶ cm/s
COc1cc(Cc2cnc(N)nc2N)cc(OC)c1OC [Trimethoprim] |  | 97% | 6.61 ×10⁻⁶ cm/s | 7.7 ×10⁻⁶ cm/s |  | 83 ×10⁻⁶ cm/s | 5.0 × 10^−6 cm/s | 45.5 ×10⁻⁶ cm/s |  | 
NS(=O)(=O)c1cc2c(cc1Cl)NCNS2(=O)=O [Hydrochlorothiazide] |  | 70% |  |  |  | 0.5 ×10⁻⁶ cm/s | 0.1 × 10^−6 cm/s | 31 ×10⁻⁶ cm/s |  | Papp at 12 h, 10 mg/mL (in vitro; pH 7.4, Papp Franz–PAMPA): 2.74 ×10⁻⁶ cm/s; Papp at 12 h, 10 mg/mL (in vitro; [13]): 2.7 ×10⁻⁶ cm/s
CN1C(C(=O)Nc2ccccn2)=C(O)c2ccccc2S1(=O)=O [Piroxicam] | −0.07 | 100% | 11 ×10⁻⁶ cm/s | 9.6 ×10⁻⁶ cm/s | 0.11 mg/mL | 35.6 ×10⁻⁶ cm/s | 8.2 × 10^−6 cm/s |  |  | Permeability classification in Franz–PAMPA [3]: low permeability drugs
COc1ccc2cc([C@H](C)C(=O)O)ccc2c1 [Naproxen] |  |  |  |  |  |  |  |  | ≤ 0.01 | 
Cn1c(=O)c2[nH]cnc2n(C)c1=O [Theophylline] | −0.05 |  |  |  | 8.33 mg/mL |  |  |  |  | 
NC(=O)N1c2ccccc2C=Cc2ccccc21 [Carbamazepine] |  | 100% | 5.97 ×10⁻⁶ cm/s |  | 0.12 mg/mL |  |  |  |  | 
